Source: publication PMC5607274, “An iterative compound screening contest method for identifying target protein inhibitors using the tyrosine-protein kinase Yes” (Scientific Reports, 2017)

Biological target: T1, human recombinant Yes [a.a. 2–543 (end)] (Homo sapiens, UniProt P07947)
T1 construct: human recombinant Yes [a.a; 2–543 (end)]; purchased BPS Bioscience 40488
Test: ADP-Glo kinase assay, inhibition rates of Yes phosphorylation activity (first and second screening)
Type: biochemical
Conditions: 10 μmol L−1 compound; for First screening IR (inhibition rate): mean of n = 4 wells; for Second screening IR (inhibition rate): dissolved from fresh powder, n = 4
Method in brief: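 ADP-Glo luminescence measured inhibition of human recombinant Yes (a.a. 2–543) phosphorylation activity. In the first screen, each compound ran in 4 wells and inhibition rates were averaged. The second screen retested hits as compounds dissolved from fresh powder.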

T1 sequence (P07947 2-543): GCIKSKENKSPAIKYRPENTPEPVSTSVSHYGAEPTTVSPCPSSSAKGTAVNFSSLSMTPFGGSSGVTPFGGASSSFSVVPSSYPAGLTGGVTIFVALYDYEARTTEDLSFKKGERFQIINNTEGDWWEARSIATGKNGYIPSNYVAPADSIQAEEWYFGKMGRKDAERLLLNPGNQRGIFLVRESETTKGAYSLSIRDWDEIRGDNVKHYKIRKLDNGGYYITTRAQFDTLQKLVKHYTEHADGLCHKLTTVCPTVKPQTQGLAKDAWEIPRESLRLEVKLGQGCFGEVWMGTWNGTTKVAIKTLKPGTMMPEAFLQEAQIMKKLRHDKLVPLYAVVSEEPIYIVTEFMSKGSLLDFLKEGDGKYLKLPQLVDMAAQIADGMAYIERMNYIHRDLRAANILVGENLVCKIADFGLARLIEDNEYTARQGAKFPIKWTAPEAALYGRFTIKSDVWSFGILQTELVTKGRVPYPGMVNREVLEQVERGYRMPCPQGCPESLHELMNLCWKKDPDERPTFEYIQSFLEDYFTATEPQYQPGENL

Row | Compound | First screening IR (inhibition rate) [%] | Second screening IR (inhibition rate) [%]
1 | O=C(Oc1cccnc1Br)c1nn(-c2ccccc2)c(=O)c2ccccc12 [Compound Z817738176] | 23 | –
2 | Cn1c(=O)c2cc(C(=O)Nc3ccc(F)c(Cl)c3)sc2n(C)c1=O [Compound Z818806818] | -3 | –
3 | CC(C)(C)c1[nH]ncc1/C=C1/CCn2c1nc1cc(Cl)ccc1c2=O [Compound Z821199838] | -3 | –
4 | Cc1cccc(CS(=O)(=O)CCS(C)(=O)=O)c1 [Compound Z822335078] | -2 | –
5 | CC(C)(C)c1ncc(C(=O)Nc2ccc(F)c(NC(=O)C3CC3)c2)s1 [Compound Z825945954] | -24 | –
6 | CS(=O)(=O)c1ccc(C(=O)NCc2ccc(-n3ccnc3)c(F)c2)cc1 [Compound Z826157056] | -29 | –
7 | CC(C)n1ncc2cc(C(=O)NCc3ccc(-n4ccnc4)c(F)c3)cnc21 [Compound Z826159196] | 9 | –
8 | Cc1cccc(NC(=O)CN2CCN(C(=O)CN3C(=O)Cn4c(cc5ccccc54)C3=O)CC2)c1C [Compound Z826666316] | -25 | –
9 | Cc1cc(NC(=O)c2ccn(-c3ccccc3)n2)n(CCC#N)n1 [Compound Z826713438] | 5 | –
10 | Cc1cc(NC(=O)/C=C/c2csc(C)n2)n(CCC#N)n1 [Compound Z826713788] | -15 | –
11 | Cc1cc(NC(=O)c2cc3c(F)cccc3s2)n(CCC#N)n1 [Compound Z826713980] | -5 | –
12 | Cc1nn(C)c2nc(-c3ccccc3)cc(C(=O)Nc3ccc4nc(CN5CCOCC5)[nH]c4c3)c12 [Compound Z826860216] | 35 | -11
13 | Oc1cccc(CN(c2ncnc3ccsc23)C2CC2)c1 [Compound Z826941792] | 1 | –
14 | O=S1(=O)CCC(N2CCN(Cc3cc(Cl)cc(C4CCCCC4)c3O)CC2)C1 (stereo not drawn) [Compound Z827167912] | 7 | –
15 | CC1CN(C(=O)Nc2ccccn2)CCN1C(=O)Nc1ccccn1 (stereo not drawn) [Compound Z827524892] | -21 | –
16 | CCCN(C1CCS(=O)(=O)C1)S(=O)(=O)CCC (stereo not drawn) [Compound Z830071152] | 16 | –
17 | Cc1cccc(C)c1OCC(O)CNc1ncnc2sc(C)c(C)c12 (stereo not drawn) [Compound Z838103434] | 13 | –
18 | O=C(N/N=C/C=C/c1ccco1)c1ccc(-c2ccc(F)cc2)s1 [Compound Z839335172] | 6 | –
19 | CC(=O)Nc1ccc(/C=C/C(=O)c2ccccc2-n2cccn2)cc1 [Compound Z839413590] | -15 | –
20 | CCOC(=O)COc1ccc(C2(C)NC(=O)c3cc(Cl)ccc3N2)cc1 (stereo not drawn) [Compound Z839958866] | 5 | –
21 | CCc1c(C(=O)CN2CCCC2c2ccsc2)[nH]c(C)c1C(C)=O (stereo not drawn) [Compound Z839968520] | 0 | –
22 | O=C(OCc1noc(C2CC2)n1)c1c[nH]cc1-c1ccc(Cl)s1 [Compound Z847574324] | 10 | –

Row | Compound | First screening IR (inhibition rate) [%] | Second screening IR (inhibition rate) [%]
23 | Cc1cc(C)n(C(C)C(=O)Nc2ccc(NC(=O)C(C)(C)C)cc2Cl)n1 (stereo not drawn) [Compound Z850607168] | 3 | –
24 | C/C(=C\C(=O)N1CCN(c2cnccn2)CC1)C12CC3CC(CC(C3)C1)C2 [Compound Z850748812] | 12 | –
25 | NC(=O)C1(CNC(=O)c2cc3c(cc2O)CCCC3)CCOCC1 [Compound Z856541214] | 17 | –
26 | COC(=O)c1sc2ncc(/C=C/C(=O)c3cccnc3)cc2c1C [Compound Z871886494] | 66 | 12
27 | COC(=O)c1sc2ncc(/C=C3\C(=O)Nc4ccccc43)cc2c1C [Compound Z872035512] | -4 | –
28 | Cc1nc(-c2ccncc2)[nH]c(=O)c1CCC(=O)NCc1ccncc1 [Compound Z873001918] | 12 | –
29 | CC1CCN(c2ccc([N+](=O)[O-])cc2C(=O)N2CCN(Cc3cn4cc(Cl)ccc4n3)CC2)CC1 [Compound Z901305410] | -17 | –
30 | Cc1cc(NC(=O)c2cc(-c3cccs3)on2)n(CCC#N)n1 [Compound Z908095506] | -3 | –
31 | Cc1c(C(=O)N(C2CCC(C)CC2)C2CC2)cnn1-c1ccc(=O)[nH]n1 (stereo not drawn) [Compound Z908597782] | -8 | –
32 | CN1CCC(N(C)c2ccc(NC(=O)c3c(O)cc(F)cc3F)cc2)CC1 [Compound Z910632940] | 6 | –
33 | COc1ccc(C(=O)N2CCCC2)cc1NC(=O)CC1CCCC1 [Compound Z913725738] | 7 | –
34 | COc1ccc(CN2CCC(CNC(=O)c3ccccc3SCc3c(C)noc3C)CC2)cc1 [Compound Z914096084] | -7 | –
35 | O=C(CN1CCN(C(=O)c2oc3ccccc3c2CSc2nccc(=O)[nH]2)CC1)N1CCCCC1 [Compound Z915764402] | -15 | –
36 | Cc1sc2nc(CN3CCC(C)CC3)nc(N3CCCN(C(=O)Cc4ccccn4)CC3)c2c1C [Compound Z915925636] | 0 | –
37 | COc1cc(NC(=O)Cc2c(C)[nH]c3ccccc23)c(C(N)=O)cc1OC [Compound Z917537988] | -25 | –
38 | CC(Oc1cccc(Cl)c1Cl)C(=O)Nc1ccc2nc[nH]c(=O)c2c1 (stereo not drawn) [Compound Z927306002] | -9 | –
39 | COc1ccccc1-c1cc(NC(=O)c2ccc(Cn3cncn3)cc2)n[nH]1 [Compound Z927972178] | 13 | –
40 | FC(F)(F)c1ccnc(Nc2ccc3nc(C4CC4)sc3c2)n1 [Compound Z929767438] | -3 | –
41 | COc1ccc(N(C)C(=O)c2[nH]nc(-c3ccccc3)c2Br)cn1 [Compound Z934680220] | -1 | –
42 | CCOc1ccc(C(=O)Nc2ccc3c(c2)C(=O)NC3)cc1OCC [Compound Z943285536] | 18 | –
43 | O=c1[nH]ncc(NCc2ccc(Cn3cnc4ccccc43)cc2)c1Cl [Compound Z951371090] | 5 | –
44 | Cc1noc(C(C)NC(=O)C2CSCN2C(=O)c2ccccc2)n1 (stereo not drawn) [Compound Z954394146] | -12 | –

Row | Compound | First screening IR (inhibition rate) [%] | Second screening IR (inhibition rate) [%]
45 | Cc1c(NC(=O)C2CC(=O)N(c3ccc4c(c3)CCC4)C2)n[nH]c1C1CC1 (stereo not drawn) [Compound Z954497746] | -9 | –
46 | CCN1CCN(c2cc(CNC(=O)c3cn(-c4ccccc4)nc3-c3ccc(OC)cc3)ccn2)CC1 [Compound Z955363064] | -5 | –
47 | O=C(Nc1cc(-c2ccc(Br)s2)[nH]n1)c1ccc2c(c1)COC2 [Compound Z956276516] | 68 | –
48 | CC(C)c1cccc(N(C)C(=O)c2cccnc2S(=O)(=O)C(F)(F)F)c1 [Compound Z959760312] | 32 | –
49 | O=C(NCCc1c[nH]c2cc(F)ccc12)c1cnc(-c2ccccc2)nc1 [Compound Z960870544] | 43 | –
50 | Cc1c(C(=O)Nc2ccc3c(ccn3CCN3CCOCC3)c2)nnn1-c1ccc(F)cc1 [Compound Z961847812] | -11 | –
51 | COc1ccc(C)cc1N1CC(C(=O)Nc2ccc3c(ccn3CCN3CCOCC3)c2)CC1=O (stereo not drawn) [Compound Z961849222] | 23 | –
52 | CCOC(=O)Cn1ccc2cc(NC(=O)c3sc(-c4ccccc4)nc3C)ccc21 [Compound Z968524204] | 2 | –
53 | O=S1(=O)CCC(S(=O)(=O)NC2CCCCCC2)CC1 [Compound Z968739862] | 50 | –
54 | Cc1ccccc1CN(C)S(=O)(=O)C1CCS(=O)(=O)CC1 [Compound Z968740596] | -2 | –
55 | Cc1ccnn1-c1ccc(C(=O)N2CCC(N3CCCC3C(N)=O)CC2)cc1 (stereo not drawn) [Compound Z968814168] | -8 | –
56 | C(=N/Nc1nc2ccccc2nc1-c1ccccc1)/c1ccc2nccnc2c1 [Compound Z969651240] | 11 | –
57 | O=C(/C=C/c1cccnc1)c1ccc(N2CCOC2=O)cc1 [Compound Z970272914] | 16 | –
58 | CC(C)C(C)NC(=O)C1CCN(Cc2ccc(C#N)cc2)CC1 (stereo not drawn) [Compound Z975048678] | 5 | –
59 | Cc1cc(CN2CCSCC2)ccc1NC(=O)c1ccnc(N(C)C)c1 [Compound Z978895402] | 0 | –
60 | CC(C)NC(=O)Nc1ccc(C(=O)N(CCC#N)Cc2ccco2)cc1 [Compound Z979061162] | 7 | –
61 | Cn1c(CSc2n[nH]c(-c3ccccc3F)n2)nc2ccccc21 [Compound Z982182198] | 4 | –
62 | CS(=O)(=O)Cc1ccc(CNc2ccnc3c(F)ccc(F)c23)cc1 [Compound Z983418922] | -17 | –
63 | O=C(Nc1cccc(OCCn2cccn2)c1)NC1CCSCC1 [Compound Z987964770] | 8 | –
64 | Cc1cccc(NCC2CCN(c3ncnc4c3cnn4C)C2)n1 (stereo not drawn) [Compound Z990436502] | 6 | –
